{"source": "patent US9931328B2", "about": "“Topical retinoid compositions” (DR. REDDY'S LABORATORIES, LTD., priority 2015, dated 2018)", "key": {"[1]": {"test": "Multiple dose bioavailability study versus TAZORAC 0.1% cream", "format": "in vivo, healthy male subjects", "conditions": "after topical application of test or reference product", "procedure": "The study was a single-center, randomized, multiple dose, laboratory-blinded, open-label, 3-arm, parallel design in healthy male subjects. The following investigational products were to be administered: 1) Test product: composition of example 1 (tazarotene 0.1%) and 2) reference: TAZORAC cream 0.1%. Following were treatment arms: 1) Treatment 1: Test product applied twice daily, in the morning and evening, 12 hours apart; 2) Treatment 2: Test product applied once daily, in the morning; and 3) Treatment 3: Reference product applied once daily, in the morning. For each study arm (n=16), approximately 5 g of the Test or Reference product was to be applied to the subjects face, neck, shoulders, upper chest and upper back (total approximately equivalent to 15% body surface area (BSA)) over 14 consecutive days (Days 1 to 14). Blood sample were collected time to time as per the schedule of the study."}, "[2]": {"test": "Excipients compatibility study with tazarotene", "format": "physicochemical", "procedure": "Excipient compatibility study for tazarotene was carried out with various pharmaceutically acceptable excipients. The tazarotene was tested in a set of compatibility screening studies with the excipients in closed vials containing tazarotene. The excipients physical mixture were incubated in ovens with and without moisture at 60° C. or 40° C./75% RH for 4 weeks."}}}
{"smiles": "CCOC(=O)c1ccc(C#Cc2ccc3c(c2)C(C)(C)CCS3)nc1", "note": "[tazarotene, Tazarotene]", "values": [{"measurement": "concentrations of the parent compound detected in plasma samples", "setting": "[1]", "value": "Very low concentrations"}, {"measurement": "excipient compatibility", "setting": "[2]; with benzyl alcohol, lactic acid, polysorbate 80", "value": "incompatible"}, {"measurement": "excipient compatibility", "setting": "[2]; with excipients of examples 1, 2, 3 (carbomer type A and B, cocobetaine, sodium lauryl sarcosinate, stearyl alcohol, cetyl alcohol, glycerine, vitamin E TPGS, gluconolactone, BHT, parabens)", "value": "compatible"}]}
